Source: PubChem BioAssay AID2060349 (Molecular Pharmacology Branch, DTP, NCI, 2025)
“And” between values parts separate entries of the source, which are not always exact repeats. Equal entries are not always repeated.

Test system: 762968-020-R-J2-PDC spheroids viability
Assay: Anticancer human tumor 762968-020-R-J2-PDC patient-derived colon carcinoma cell line growth inhibition [TAK]
Conditions: spheroids with HUVEC and MSC; for viability, T/C: stronger effect = lower value
Text: Combinatorial screen of targeted agents with TAK-243 and ipatasertib in multi-cell type tumor spheroids
A high-throughput screen of multi-cell type tumor spheroids was designed to identify active combinations of targeted small molecules and TAK-243 or ipatasertib. Complex spheroids include a stromal component modeled by human endothelial cells (HUVEC) and fibroblasts modeled by human mesenchymal stem cells (MSCs). The concentration ranges selected for each drug and investigational agent were based upon clinically achievable concentrations if the clinical Cmax of the agent was known.
Compounds. The drugs and investigational agents: TAK-243 (785004), ipatasertib (767898), everolimus (733504), selumetinib (741078), bortezomib (756655), trametinib (758246), ixazomib (758254), vemurafenib (761431), dabrafenib (764134), sapanisertib (764658), alpelisib (765974), and copanlisib (816437), were obtained from the National Cancer Institute (NCI) Developmental Therapeutics Program Chemical Repository. The FDA-approved anticancer drug set is available from the NCI Developmental Therapeutics Program. […] The stock solutions were prepared in dimethyl sulfoxide (DMSO, Sigma-Aldrich, St. Louis, MO, cat. D2650) at 800-fold the tested concentration and stored at -70 degrees C prior to their use. All drugs and investigational agents were tested over a range starting from a high concentration at or near the clinical Cmax and decreasing in half-log increments. If the clinical Cmax for an agent had not been determined, the highest concentration tested was 10 microM.
NCI60 Cell Culture. NCI60 cell lines were obtained from the NCI Developmental Therapeutics Program Tumor Repository. For each lot of cells, the Repository performed Applied Biosystems AmpFLSTR Identifiler testing with PCR amplification to confirm consistency with the published Identifier STR profile for each cell line. Cells were kept in continuous culture for no more than 20 passages. The optimal seeding densities for each of the cell lines at each time point assessed were determined prior to performing the concentration response studies. Briefly, the NCI60 human tumor lines were grown as monolayers in RPMI 1640 medium supplemented with 10% FBS and 2 mmol/L L-glutamine.
An additional 2 lines were from the NCI60 cell line panel including melanomas, MALME-3M and SK-MEL-2. Pooled donor human umbilical vein endothelial cells (HUVEC, Lonza, cat. CC-2519) and human mesenchymal stem cells (hMSC, Lonza, cat. PT-2501) were purchased from Lonza (Walkersville, MD).
PDMR cell lines were grown in complete medium (DC medium): Dulbecco's modified Eagle's medium (DMEM)/F12 supplemented with 5% fetal bovine serum (FBS), 2 mM L-glutamine, 100 U/mL penicillin and 100 µg/ml streptomycin, 0.4 µg/ml hydrocortisone, 10 ng/ml epidermal growth factor (EGF) recombinant human protein, 24 µg/mL adenine, and 0.1 mg/mL primocin. During culture from frozen stock vials, PDMR cells were cultured in the same medium containing 10 µM Y-27632 (see Table 3). The PDCs were cultured in complete DMEM/F12 media without 10 microM Y-27632 dihydrochloride for at least two passages prior to the screen. The pooled donor HUVEC and hMSC were cultured in endothelial cell growth medium 2 (PromoCell, Heidelberg, Germany, cat. C-22011) and mesenchymal stem cell growth medium 2 (PromoCell, cat. C-28009), respectively. For all experiments, HUVEC and hMSC were used at passages </=5.
For the pre-screen, cell seeding densities were determined from a titration spanning the range from 5,000 to 313 cells per well. The mct-spheroids including 60% malignant cells, 25% HUVEC and 15% MSC dispensed as a mixture into U-bottom Ultra-Low Attachment 384-well plates (Corning, NY)
High-throughput Drug Combination Screening.
Prior to their inoculation into 384-well plates, malignant cells, HUVEC, and hMSC were removed from T flasks using TrypLE express (Thermo Fisher Scientific, cat. 12605036) and harvested by centrifugation for 5 min at 233 x g. […]
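Further: spheroids exposed to drug for 7 days before readout.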
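Wherever viability, T/C is given: 100% = DMSO vehicle control wells.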

Cn1cnc2c(F)c(Nc3ccc(Br)cc3Cl)c(C(=O)NOCCO)cc21 + CC(C)NCC(C(=O)N1CCN(c2ncnc3c2C(C)CC3O)CC1)c1ccc(Cl)cc1
IC50 (curve of first compound, second compound 0.3 µM): 2350 nM | IC50 (curve of first compound, second compound 0.949 µM): > 3000 nM | IC50 (curve of first compound, second compound 3 µM): > 3000 nM | IC50 (curve of first compound, second compound 9.49 µM): > 3000 nM | IC50 (curve of first compound, second compound 30 µM): > 3000 nM | viability, T/C (second compound 0.3 µM, first compound 0.00949 µM): 94.6% | viability, T/C (second compound 0.3 µM, first compound 0.03 µM): 95.5% | viability, T/C (second compound 0.3 µM, first compound 0.0949 µM): 89.6% | viability, T/C (second compound 0.3 µM, first compound 0.3 µM): 84.2% | viability, T/C (second compound 0.3 µM, first compound 0.949 µM): 69.9% | viability, T/C (second compound 0.3 µM, first compound 3 µM): 44.5% | viability, T/C (second compound 0.949 µM, first compound 0.00949 µM): 103% | viability, T/C (second compound 0.949 µM, first compound 0.03 µM): 97.5% | viability, T/C (second compound 0.949 µM, first compound 0.0949 µM): 87% | viability, T/C (second compound 0.949 µM, first compound 0.3 µM): 83.4% | viability, T/C (second compound 0.949 µM, first compound 0.949 µM): 74.8% | viability, T/C (second compound 0.949 µM, first compound 3 µM): 50.5% | viability, T/C (second compound 3 µM, first compound 0.00949 µM): 106% | viability, T/C (second compound 3 µM, first compound 0.03 µM): 97.7% | viability, T/C (second compound 3 µM, first compound 0.0949 µM): 95.2% | viability, T/C (second compound 3 µM, first compound 0.3 µM): 85.8% | viability, T/C (second compound 3 µM, first compound 0.949 µM): 72.2% | viability, T/C (second compound 3 µM, first compound 3 µM): 58.4% | viability, T/C (second compound 9.49 µM, first compound 0.00949 µM): 96.5% | viability, T/C (second compound 9.49 µM, first compound 0.03 µM): 83.7% | viability, T/C (second compound 9.49 µM, first compound 0.0949 µM): 80.6% | viability, T/C (second compound 9.49 µM, first compound 0.3 µM): 79.1% | viability, T/C (second compound 9.49 µM, first compound 0.949 µM): 66.3% | viability, T/C (second compound 9.49 µM, first compound 3 µM): 55.8% | viability, T/C (second compound 30 µM, first compound 0.00949 µM): 82.7% | viability, T/C (second compound 30 µM, first compound 0.03 µM): 85.3% | viability, T/C (second compound 30 µM, first compound 0.0949 µM): 83.2% | viability, T/C (second compound 30 µM, first compound 0.3 µM): 79% | viability, T/C (second compound 30 µM, first compound 0.949 µM): 70.5% | viability, T/C (second compound 30 µM, first compound 3 µM): 57.8%

Cc1nc(NC(=O)N2CCCC2C(N)=O)sc1-c1ccnc(C(C)(C)C(F)(F)F)c1 (stereo unspecified)
viability, T/C (compound 0.0316 µM): 113% and 104% | viability, T/C (compound 0.1 µM): 106% and 95.2% | viability, T/C (compound 0.316 µM): 106% and 93.9% | viability, T/C (compound 1 µM): 92.5% and 89.1% | viability, T/C (compound 3.16 µM): 91.7% and 87.4% | viability, T/C (compound 10 µM): 92.9% and 87.8% | IC50 (curve of compound): > 10000 nM

CC(C)CC(NC(=O)CNC(=O)c1cc(Cl)ccc1Cl)B1OC(=O)CC(CC(=O)O)(C(=O)O)O1 (stereo unspecified)
viability, T/C (compound 0.000316 µM): 100% and 110% | viability, T/C (compound 0.001 µM): 109% and 98.2% | viability, T/C (compound 0.00316 µM): 104% and 108% | viability, T/C (compound 0.01 µM): 97.5% and 107% | viability, T/C (compound 0.0316 µM): 96.1% and 98% | viability, T/C (compound 0.1 µM): 78.6% and 80.6% | IC50 (curve of compound): > 100 nM

CC(=O)Nc1cccc(-n2c(=O)n(C3CC3)c(=O)c3c(Nc4ccc(I)cc4F)n(C)c(=O)c(C)c32)c1
viability, T/C (compound 94.9 pM): 98.7% and 103% | viability, T/C (compound 0.0003 µM): 103% and 97.5% | viability, T/C (compound 0.000949 µM): 97.3% | viability, T/C (compound 0.003 µM): 86.9% and 80.5% | viability, T/C (compound 0.00949 µM): 60.6% and 73.2% | viability, T/C (compound 0.03 µM): 41.2% and 39% | IC50 (curve of compound): 17.8 nM and 20.4 nM
